Measured values reported in PubChem BioAssay (NCI).
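In this assay, cells in 96-well plates receive the compound at five concentrations for 48 hours. Endpoints are linearly interpolated between the surrounding concentrations. TGI: concentration producing complete growth inhibition.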 Where a SMILES comes first, the peptide text is derived from it. [ ]: non-standard residue; d: D form. ΔPro = O=C(O)[CH]1C=CCN1

Legend:
Test in all cases: DTP human tumour cell line panel, 48 h
SNB-19 CNS = system: SNB-19 CNS
HL-60(TB) leukemia = system: HL-60(TB) leukemia
OVCAR-4 ovarian = system: OVCAR-4 ovarian
RXF 393 renal = system: RXF 393 renal
OVCAR-8 ovarian = system: OVCAR-8 ovarian
SK-MEL-28 melanoma = system: SK-MEL-28 melanoma
HCC-2998 colon = system: HCC-2998 colon
CAKI-1 renal = system: CAKI-1 renal
KM12 colon = system: KM12 colon
PC-3 prostate = system: PC-3 prostate
DU-145 prostate = system: DU-145 prostate
SN12C renal = system: SN12C renal
MCF7 breast = system: MCF7 breast
SF-295 CNS = system: SF-295 CNS
OVCAR-5 ovarian = system: OVCAR-5 ovarian
HOP-62 NSCLC = system: HOP-62 NSCLC
UACC-257 melanoma = system: UACC-257 melanoma

Structure (SMILES) | TGI (SNB-19 CNS) | TGI (HL-60(TB) leukemia) | TGI (OVCAR-4 ovarian) | TGI (RXF 393 renal) | TGI (OVCAR-8 ovarian) | TGI (SK-MEL-28 melanoma) | TGI (HCC-2998 colon) | TGI (CAKI-1 renal) | TGI (KM12 colon) | TGI (PC-3 prostate) | TGI (DU-145 prostate) | TGI (SN12C renal) | TGI (MCF7 breast) | TGI (SF-295 CNS) | TGI (OVCAR-5 ovarian) | TGI (HOP-62 NSCLC) | TGI (UACC-257 melanoma)
CSC1=NN(C(C)=O)C(C(OC(C)=O)C(OC(C)=O)C(OC(C)=O)C(COC(C)=O)OC(C)=O)S1 (stereo not given) | > 100 µM | > 100 µM | > 100 µM | > 100 µM | > 100 µM | > 100 µM | > 100 µM | > 100 µM | > 100 µM | > 100 µM | > 100 µM | > 100 µM | > 100 µM | > 100 µM | > 100 µM | > 100 µM | > 100 µM
[N-]=[N+]=NC1C(O)C(CO)OC1n1ccc(N)nc1=O (stereo not given) | > 625 µM | 25.3 µM | > 625 µM | > 602 µM | > 625 µM | > 625 µM | > 581 µM | > 625 µM | > 625 µM | > 625 µM | > 625 µM | 615 µM | > 625 µM | > 625 µM | > 625 µM | > 625 µM | > 625 µM
C=C(C)[C@H]1CC[C@@]23O[C@@H]2[C@@H](C[C@@]2(C)CC(=O)[C@H](CC(=O)C1)O2)OC(=O)[C@@]12CC[C@H](C(=C)C)CC(=O)C[C@H]4O[C@](C)(CC4=O)C[C@@H](OC3=O)[C@@H]1O2 | > 100 µM | > 100 µM | > 100 µM | > 100 µM | > 100 µM | > 100 µM | > 100 µM | > 100 µM | > 100 µM | > 100 µM | > 100 µM | > 100 µM | > 100 µM | > 100 µM | > 100 µM | > 100 µM | > 100 µM
N#Cc1c(Cl)cc(C#N)n2c1nc1ccccc12 | > 84.7 µM | 3.03 µM | 41.9 µM | 28.7 µM | 21 µM | 26.5 µM | 40.9 µM | 16.7 µM | 23.2 µM | 32.6 µM | 41.3 µM | 38.6 µM | 24.9 µM | 30.1 µM | 30.3 µM | 44.1 µM | 29.7 µM
CC(O)CNC(=O)Nc1c(C(F)(F)F)cc(-c2ccccc2)[nH]c1=O (stereo not given) | > 100 µM | 1.54 µM | > 100 µM | > 100 µM | > 100 µM | > 100 µM | > 100 µM | > 100 µM | > 100 µM | > 100 µM | > 100 µM | > 100 µM | > 100 µM | > 100 µM | > 100 µM | > 100 µM | > 100 µM
CC1(c2ccccc2)O[C@@H]2C[C@H]3[C@@H]4CCC5=CC(=O)C=C[C@]5(C)[C@@]4(F)[C@@H](O)C[C@]3(C)[C@]2(C(=O)CO)O1 (stereo not given in full) | 63.7 µM | 39.4 µM | 28.3 µM | 36.3 µM | 41.7 µM | 30.8 µM | 33.3 µM | 56 µM | 30 µM | 30.9 µM | 35 µM | 26.1 µM | 29.9 µM | 36.2 µM | 33.1 µM | 29.2 µM | 33.1 µM
O=C(O)C1C=CCN1C(=O)C1C=CCN1C(=O)C1C=CCN1 (stereo not given) (H-[ΔPro]-[ΔPro]-[ΔPro]-OH; configuration not given here) | > 100 µM | > 100 µM | > 100 µM | > 100 µM | > 100 µM | > 100 µM | > 100 µM | > 100 µM | > 100 µM | > 100 µM | > 100 µM | > 100 µM | > 100 µM | > 100 µM | > 100 µM | > 100 µM | > 100 µM
c1ccc2sc(SSSc3nc4ccccc4s3)nc2c1 | > 100 µM | > 100 µM | > 100 µM | > 100 µM | > 100 µM | > 100 µM | > 100 µM | > 100 µM | > 100 µM | > 100 µM | > 100 µM | > 100 µM | > 100 µM | > 100 µM | > 100 µM | > 100 µM | > 100 µM
COC(=O)/C=C/CCC#Cc1ccccc1C#CCC/C=C/C(=O)OC | > 100 µM | 9.63 µM | > 100 µM | 27 µM | 26 µM | > 100 µM | > 100 µM | 10.1 µM | > 100 µM | > 100 µM | > 100 µM | 55.7 µM | > 100 µM | > 100 µM | > 100 µM | > 100 µM | > 100 µM
C=C(COCO)C(C)=O | > 100 µM | 5.78 µM | 37.2 µM | 29.4 µM | 24.6 µM | 32 µM | > 58.4 µM | 5.42 µM | > 54.5 µM | 34.8 µM | > 65.8 µM | 33 µM | 34.5 µM | > 100 µM | 35.3 µM | > 68.5 µM | 31.1 µM
